In patent publication US7799824B2, “Quaternary salt CCR2 antagonists” (OraPharma, Inc., priority 2004, dated 2010):

Target: T1, CCR2 (Homo sapiens, UniProt P41597)
T1 sequence (P41597 1-360 isoform P41597-2): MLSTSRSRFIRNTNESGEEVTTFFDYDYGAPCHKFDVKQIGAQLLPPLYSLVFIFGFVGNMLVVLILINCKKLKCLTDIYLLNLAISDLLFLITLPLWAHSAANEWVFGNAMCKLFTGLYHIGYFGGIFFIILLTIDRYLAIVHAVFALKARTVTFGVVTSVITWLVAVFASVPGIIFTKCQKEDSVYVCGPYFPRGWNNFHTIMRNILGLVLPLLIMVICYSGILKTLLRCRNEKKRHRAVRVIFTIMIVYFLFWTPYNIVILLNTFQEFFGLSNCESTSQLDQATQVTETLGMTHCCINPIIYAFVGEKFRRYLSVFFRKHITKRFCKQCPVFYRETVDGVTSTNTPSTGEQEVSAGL
Assay: MCP-1 Receptor Binding Assay in THP-1 Cells
Conditions: for IC50: THP-1 cells, 0.5 nM 125I labeled MCP-1, 2 hours at 30° C., read-out: Mean Ligand Binding IC50 (inhibition of MCP-1 binding to CCR2); for inhibition at 25 µM: MCP-1 binding to CCR2, test concentration of 25 μM, unless indicated otherwise, read-out: % Inhibition Ligand Binding
Outline: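 THP-1 cells; bound radioactivity collected on filter plates and counted by scintillation. Buffer-only blanks subtracted, drug-treated values compared with vehicle; nonspecific binding defined with 1 μM unlabeled MCP-1.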

Structure (SMILES) | IC50 | inhibition at 25 µM
C[N+](C)(Cc1ccc(NC(=O)C2=Cc3cc(Br)ccc3CCC2)cc1)C1CCCCC1 [Cpd 144, {4-[(3-bromo-8,9-dihydro-7H-benzocycloheptene-6-carbonyl)-amino]-benzyl}-cyclohexyl-dimethyl-ammonium iodide] | 330 nM | 
C[N+]1(Cc2ccc(NC(=O)C3=Cc4ccccc4CCC3)cc2)CCCC1 [Cpd 145, 1-{4-[(8,9-dihydro-7H-benzocycloheptene-6-carbonyl)-amino]-benzyl}-1-methyl-pyrrolidinium iodide] |  | 36%
C[N+](C)(Cc1ccc(NC(=O)C2=Cc3ccccc3CCC2)cc1)C1CCCCC1 [Cpd 146, cyclohexyl-{4-[(8,9-dihydro-7H-benzocycloheptene-6-carbonyl)-amino]-benzyl}-dimethyl-ammonium iodide] | 710 nM | 
C[N+](C)(Cc1ccc(NC(=O)C2=Cc3ccccc3CCC2)cc1)C1CCOCC1 [Cpd 147, {4-[(8,9-dihydro-7H-benzocycloheptene-6-carbonyl)-amino]-benzyl}-dimethyl-(tetrahydro-pyran-4-yl)-ammonium iodide] | 1200 nM | 
C[N+](C)(Cc1ccc(CNC(=O)C2=Cc3ccccc3CCC2)cc1)C1CCOCC1 [Cpd 148, (4-{[(8,9-dihydro-7H-benzocycloheptene-6-carbonyl)-amino]-methyl}-benzyl)-dimethyl-(tetrahydro-pyran-4-yl)-ammonium iodide] |  | 7%
Cc1oc(-c2ccccc2)cc1C(=O)NCc1ccc(C[N+](C)(C)C2CCOCC2)cc1 [Cpd 149, dimethyl-(4-{[(2-methyl-5-phenyl-furan-3-carbonyl)-amino]-methyl}-benzyl)-(tetrahydro-pyran-4-yl)-ammonium iodide] |  | 58%
Cc1oc(-c2ccc(Cl)cc2)cc1C(=O)NCc1ccc(C[N+](C)(C)C2CCOCC2)cc1 [Cpd 150, [4-({[5-(4-chloro-phenyl)-2-methyl-furan-3-carbonyl]-amino}-methyl)-benzyl]-dimethyl-(tetrahydro-pyran-4-yl)-ammonium iodide] |  | 27%
C[N+](C)(Cc1ccc(NC(=O)c2cc3ccccc3o2)cc1)C1CCOCC1 [Cpd 152, {4-[(benzofuran-2-carbonyl)-amino]-benzyl}-dimethyl-(tetrahydro-pyran-4-yl)-ammonium iodide] | 1600 nM | 
C[N+](C)(Cc1ccc(NC(=O)c2cc(-c3ccc(Cl)cc3)oc2C(F)(F)F)cc1)C1CCCCC1 [Cpd 154, (4-{[5-(4-chloro-phenyl)-2-trifluoromethyl-furan-3-carbonyl]-amino}-benzyl)-cyclohexyl-dimethyl-ammonium iodide] | 4600 nM | 
C[N+](C)(Cc1ccc(NC(=O)c2cc3cc(Cl)ccc3o2)cc1)C1CCOCC1 [Cpd 155, {4-[(5-chloro-benzofuran-2-carbonyl)-amino]-benzyl}-dimethyl-(tetrahydro-pyran-4-yl)-ammonium iodide] | 490 nM | 
C[N+](C)(Cc1ccc(NC(=O)c2cc3cc(Cl)ccc3o2)cc1)C1CCCCC1 [Cpd 156, {4-[(5-chloro-benzofuran-2-carbonyl)-amino]-benzyl}-cyclohexyl-dimethyl-ammonium iodide] | 180 nM | 
C[N+](C)(Cc1ccc(NC(=O)c2cc3ccccc3o2)cc1)C1CCCCC1 [Cpd 157, {4-[(benzofuran-2-carbonyl)-amino]-benzyl}-cyclohexyl-dimethyl-ammonium iodide] | 690 nM | 
Cn1c(C(=O)Nc2ccc(C[N+](C)(C)C3CCOCC3)cc2)cc2ccccc21 [Cpd 158, dimethyl-{4-[(1-methyl-1H-indole-2-carbonyl)-amino]-benzyl}-(tetrahydro-pyran-4-yl)-ammonium iodide] | 400 nM | 
C[N+](C)(Cc1ccc(NC(=O)c2cc3cc(Cl)ccc3[nH]2)cc1)C1CCOCC1 [Cpd 159, {4-[(5-chloro-1H-indole-2-carbonyl)-amino]-benzyl}-dimethyl-(tetrahydro-pyran-4-yl)-ammonium iodide] | 190 nM | 
C[N+](C)(Cc1ccc(NC(=O)c2cc3cc(Br)ccc3[nH]2)cc1)C1CCOCC1 [Cpd 160, {4-[(5-bromo-1H-indole-2-carbonyl)-amino]-benzyl}-dimethyl-(tetrahydro-pyran-4-yl)-ammonium iodide] | 290 nM | 
Cn1cc(C(=O)Nc2ccc(C[N+](C)(C)C3CCOCC3)cc2)c2ccccc21 [Cpd 161, dimethyl-{4-[(1-methyl-1H-indole-3-carbonyl)-amino]-benzyl}-(tetrahydro-pyran-4-yl)-ammonium iodide] |  | 33%
C[N+](C)(Cc1ccc(NC(=O)c2cn(Cc3ccccc3)c3ccccc23)cc1)C1CCOCC1 [Cpd 162, {4-[(1-benzyl-1H-indole-3-carbonyl)-amino]-benzyl}-dimethyl-(tetrahydro-pyran-4-yl)-ammonium iodide] | 1600 nM | 
Cn1c(C(=O)Nc2ccc(C[N+](C)(C)C3CCCCC3)cc2)cc2ccccc21 [Cpd 163, cyclohexyl-dimethyl-{4-[(1-methyl-1H-indole-2-carbonyl)-amino]-benzyl}-ammonium iodide] | 620 nM | 
C[N+](C)(Cc1ccc(NC(=O)c2cc3cc(Cl)ccc3[nH]2)cc1)C1CCCCC1 [Cpd 164, {4-[(5-chloro-1H-indole-2-carbonyl)-amino]-benzyl}-cyclohexyl-dimethyl-ammonium iodide] | 200 nM | 
C[N+](C)(Cc1ccc(NC(=O)c2cc3cc(Cl)ccc3[nH]2)cc1)C[C@@H]1CCCO1 [Cpd 165, (2S)-{4-[(5-chloro-1H-indole-2-carbonyl)-amino]-benzyl}-dimethyl-(tetrahydro-furan-2-ylmethyl)-ammonium iodide] | 3300 nM | 
C[N+](C)(Cc1ccc(NC(=O)c2cc3cc(Cl)ccc3[nH]2)cc1)CC1CC2CCC1C2 (centres unmarked) [Cpd 166, bicyclo[2.2.1]hept-2-ylmethyl-{4-[(5-chloro-1H-indole-2-carbonyl)-amino]-benzyl}-dimethyl-ammonium iodide] | 110 nM | 
C[N+](C)(Cc1ccc(NC(=O)C2=Cc3cc(Cl)c(Cl)cc3OCC2)cc1)C1CCOCC1 [Cpd 167, {4-[(7,8-dichloro-2,3-dihydro-benzo[b]oxepine-4-carbonyl)-amino]-benzyl}-dimethyl-(tetrahydro-pyran-4-yl)-ammonium iodide] | 240 nM | 
C[N+](C)(Cc1ccc(NC(=O)C2=Cc3cc(Cl)c(Cl)cc3OCC2)cc1)C1CCCCC1 [Cpd 168, cyclohexyl-{4-[(7,8-dichloro-2,3-dihydro-benzo[b]oxepine-4-carbonyl)-amino]-benzyl}-dimethyl-ammonium iodide] | 1000 nM | 
C[N+](C)(Cc1ccc(NC(=O)C2=Cc3cc(Cl)c(Cl)cc3OCC2)cc1)C1CC2CCC1C2 (centres unmarked) [Cpd 169, bicyclo[2.2.1]hept-2-yl-{4-[(7,8-dichloro-2,3-dihydro-benzo[b]oxepine-4-carbonyl)-amino]-benzyl}-dimethyl-ammonium iodide] | 240 nM | 
C[N+](C)(Cc1ccc(CNC(=O)C2=Cc3cc(Cl)c(Cl)cc3OCC2)cc1)C1CCOCC1 [Cpd 170, (4-{[(7,8-dichloro-2,3-dihydro-benzo[b]oxepine-4-carbonyl)-amino]-methyl}-benzyl)-dimethyl-(tetrahydro-pyran-4-yl)-ammonium iodide] |  | 36%
C[N+](C)(Cc1ccc(NC(=O)C2=Cc3cc(Cl)c(Cl)cc3OCC2)cc1)C1CCSC1 (centres unmarked) [Cpd 171, {4-[(7,8-dichloro-2,3-dihydro-benzo[b]oxepine-4-carbonyl)-amino]-benzyl}-dimethyl-(tetrahydro-thiophen-3-yl)-ammonium iodide] | 560 nM | 
